Patent US11802120B2, “Fused cyclic urea derivatives as CRHR2 antagonist” (RaQualia Pharma Inc., priority 2018, dated 2023)

Molecular target: T1, human CRHR2-alpha (Homo sapiens, UniProt Q13324)
T1 sequence (Q13324 1-411): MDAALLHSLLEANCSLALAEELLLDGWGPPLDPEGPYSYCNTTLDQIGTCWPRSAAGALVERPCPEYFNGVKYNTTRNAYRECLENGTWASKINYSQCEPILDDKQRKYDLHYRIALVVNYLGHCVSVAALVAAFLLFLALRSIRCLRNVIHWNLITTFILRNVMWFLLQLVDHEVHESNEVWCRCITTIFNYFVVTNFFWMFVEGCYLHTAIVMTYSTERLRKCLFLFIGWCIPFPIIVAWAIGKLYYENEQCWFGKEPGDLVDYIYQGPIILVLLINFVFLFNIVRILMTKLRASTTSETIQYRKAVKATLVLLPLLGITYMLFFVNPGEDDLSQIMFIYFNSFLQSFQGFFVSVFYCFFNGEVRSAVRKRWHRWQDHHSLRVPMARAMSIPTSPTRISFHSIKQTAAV
Experiment: cAMP functional assay for human CRHR2 (LANCE Ultra cAMP, TR-FRET)
Assay type: cell-based
Conditions: CHO-K1 cells expressing human CRHR2-alpha, agonist human urocortin2 at EC80, cAMP; read-out: IC50 against CRHR2
Method: cAMP functional assay for human CRHR1 and CRHR2
The ability of the compounds of this invention to inhibit either CRHR2 or CRHR1 is assessed by 3′,5′-cyclic adenosine monophosphate (cAMP) production in cells using the LANCE Ultra cAMP assay kit (ParkinElmer), which are designed based on the homogeneous time-resolved fluorescence resonance energy transfer (TR-FRET) immunoassay.
CHO-K1 (Chinese hamster ovary) cells stably expressing either human CRHR2-alpha (DiscoveRX, Cat. 95-0048C2) or human CRHR1-beta (DiscoveRX, Cat. 95-0047C2) are grown in HAM's F12 media supplemented with 10% fetal bovine serum (FBS), 100 units/mL penicillin, 100 microg/mL hygromycin and 0.5 microg/mL geneticin at 37° C. in 5% CO2 humidified incubator to 80% confluence. After 7 hours starvation treatment in culture media containing 0.1% FBS, the cells are washed with Hanks balanced salt solution (HBSS) and cryopreserved.
For cAMP assay, frozen cells are thawed and washed with HBSS, followed by resuspended in assay buffer (HBSS containing 0.1% bovine serum albumin, 0.5 mM isobutylmethylxanthine and 5 mM Hepes, pH 7.4) at the appropriate concentration for the assay. The cell suspensions are plated on 384-well microplates (Greiner Bio-One) at a density of 4,000 cells per well. After preincubating the cells with various concentrations of the compounds for 30 min at 25° C., an assay buffer containing EC80 concentration of each agonist is added and the cells are incubated for 30 min at 25° C. Human urocortin2 (Peptide Institute) and CRF (Peptide Institute) are used as agonists for CRHR2 and CRHR1, respectively. For the termination of assay, europium-labeled cAMP tracer and ULight (registered trademark) dye labeled cAMP antibodies, both prepared with Lance-Ultra cAMP detection reagent (Perkin Elmer) are added in the plate and incubate for 60 min at 25° C. After incubation, TR-FRET signal is detected by EnVision plate reader (PerkinElmer). The IC50 values for compounds are calculated from dose-response curves by fitting the percent inhibition using XLfit (ID Business Solutions).

SMILES	IC50
Cc1ncc(Cl)cc1C(=O)N[C@H]1CC[C@H](Cn2c(=O)n(CC(=O)c3ccccc3)c3ccccc32)CC1 [Example 5, 5-chloro-2-methyl-N-((1r,4r)-4-((2-oxo-3-(2-oxo-2-phenylethyl)-2,3-dihydro-1H-benzo[d]imidazol-1-yl)methyl)cyclohexyl)nicotinamide]	< 0.3 µM
COc1ccc(C(=O)Cn2c(=O)n(C[C@H]3CC[C@H](NC(=O)c4cc(Cl)cnc4C)CC3)c3ccccc32)cc1 [Example 9, 5-chloro-N-((1r,4r)-4-((3-(2-(4-methoxyphenyl)-2-oxoethyl)-2-oxo-2,3-dihydro-1H-benzo[d]imidazol-1-yl)methy)cyclohexyl)-2-methylnicotinamide]	< 0.3 µM
COc1ccccc1C(=O)Cn1c(=O)n(C[C@H]2CC[C@H](NC(=O)c3cc(Cl)cnc3C)CC2)c2ccccc21 [Example 10, 5-chloro-N-((1r,4r)-4-((3-(2-(2-methoxyphenyl)-2-oxoethyl)-2-oxo-2,3-dihydro-1H-benzo[d]imidazol-1-yl)methyl)cyclohexyl)-2-methylnicotinamide]	< 0.3 µM
Cc1ncc(Cl)cc1C(=O)N[C@H]1CC[C@H](Cn2c(=O)n(CC(=O)c3ccc(F)cc3F)c3ccccc32)CC1 [Example 12, 5-chloro-N-((1r,4r)-4-((3-(2-(2,4-difluorophenyl)-2-oxoethyl)-2-oxo-2,3-dihydro-1H-benzo[d]imidazol-1-yl)methyl)cyclohexyl)-2-methylnicotinamide]	< 0.3 µM
Cc1ncc(Cl)cc1C(=O)N[C@H]1CC[C@H](Cn2c(=O)n(CC(=O)c3ccc(C#N)cc3)c3ccccc32)CC1 [Example 13, 5-chloro-N-((1r,4r)-4-((3-(2-(4-cyanophenyl)-2-oxoethyl)-2-oxo-2,3-dihydro-1H-benzo[d]imidazol-1-yl)methyl)cyclohexyl)-2-methylnicotinamide]	< 0.3 µM
Cc1ncc(Cl)cc1C(=O)N[C@H]1CC[C@H](Cn2c(=O)n(-c3ccccc3F)c3ccccc32)CC1 [Example 33, 5-chloro-N-((1r,4r)-4-((3-(2-fluorophenyl)-2-oxo-2,3-dihydro-1H-benzo[d]imidazol-1-yl)methyl)cyclohexyl)-2-methylnicotinamide]	< 0.3 µM
Cc1ncc(Cl)cc1C(=O)N[C@H]1CC[C@H](Cn2c(=O)n(-c3ccc(OCC(F)F)nc3)c3ccccc32)CC1 [Example 35, 5-chloro-N-((1r,4r)-4-((3-(6-(2,2-difluoroethoxy)pyridin-3-yl)-2-oxo-2,3-dihydro-1H-benzo[d]imidazol-1-yl)methyl)cyclohexyl)-2-methylnicotinamide]	< 0.3 µM
CCOc1ccc(-n2c(=O)n(C[C@H]3CC[C@H](NC(=O)c4cc(Cl)cnc4C)CC3)c3ccccc32)cn1 [Example 36, 5-chloro-N-((1r,4r)-4-((3-(6-ethoxypyridin-3-yl)-2-oxo-2,3-dihydro-1H-benzo[d]imidazol-1-yl)methyl)cyclohexyl)-2-methylnicotinamide]	< 0.3 µM
CCn1nc2ccccc2c1C(=O)N[C@H]1CC[C@H](Cn2c(=O)n(-c3ccc(OC)cc3)c3ccccc32)CC1 [Example 37, 2-ethyl-N-((1r,4r)-4-((3-(4-methoxyphenyl)-2-oxo-2,3-dihydro-1H-benzo[d]imidazol-1-yl)methyl)cyclohexyl)-2H-indazole-3-carboxamide]	< 0.3 µM
CCn1nc2ccccc2c1C(=O)N[C@H]1CC[C@H](Cn2c(=O)n(-c3ccc(C)nc3)c3ccccc32)CC1 [Example 38, 2-ethyl-N-((1r,4r)-4-((3-(6-methylpyridin-3-yl)-2-oxo-2,3-dihydro-1H-benzo[d]imidazol-1-yl)methyl)cyclohexyl)-2H-indazole-3-carboxamide]	< 0.3 µM
CCn1nc2ccccc2c1C(=O)N[C@H]1CC[C@H](Cn2c(=O)n(-c3ccc(OC)nc3)c3ccccc32)CC1 [Example 39, 2-ethyl-N-((1r,4r)-4-((3-(6-methoxypyridin-3-yl)-2-oxo-2,3-dihydro-1H-benzo[d]imidazol-1-yl)methyl)cyclohexyl)-2H-indazole-3-carboxamide]	< 0.3 µM
CCn1nc2ccccc2c1C(=O)N[C@H]1CC[C@H](Cn2c(=O)n(-c3ccc(C(C)=O)cc3)c3ccccc32)CC1 [Example 41, N-((1r,4r)-4-((3-(4-acetylphenyl)-2-oxo-2,3-dihydro-1H-benzo[d]imidazol-1-yl)methyl)cyclohexyl)-2-ethyl-2H-indazole-3-carboxamide]	< 0.3 µM

More lines, now with the values ahead:

IC50	SMILES
< 0.3 µM	CCn1nc2ccccc2c1C(=O)N[C@H]1CC[C@H](Cn2c(=O)n(-c3ccc(C(C)O)cc3)c3ccccc32)CC1 (some centres unmarked) [Example 42, 2-ethyl-N-((1r,4r)-4-((3-(4-(1-hydroxyethyl)phenyl)-2-oxo-2,3-dihydro-1H-benzo[d]imidazol-1-yl)methyl)cyclohexyl)-2H-indazole-3-carboxamide]
< 0.3 µM	COc1ccc(-n2c(=O)n(C[C@H]3CC[C@H](NC(=O)c4cc(Cl)cnc4C)CC3)c3ccccc32)cc1OC [Example 44, 5-chloro-N-((1r,4r)-4-((3-(3,4-dimethoxyphenyl)-2-oxo-2,3-dihydro-1H-benzo[d]imidazol-1-yl)methyl)cyclohexyl)-2-methylnicotinamide]
< 0.3 µM	Cc1ncc(Cl)cc1C(=O)N[C@H]1CC[C@H](Cn2c(=O)n(-c3ccc(F)cc3F)c3ccccc32)CC1 [Example 46, 5-chloro-N-((1r,4r)-4-((3-(2,4-difluorophenyl)-2-oxo-2,3-dihydro-1H-benzo[d]imidazol-1-yl)methyl)cyclohexyl)-2-methylnicotinamide]
< 0.3 µM	Cc1ncc(Cl)cc1C(=O)N[C@H]1CC[C@H](Cn2c(=O)n(-c3ccc(N(C)C)nc3)c3ccccc32)CC1 [Example 52, 5-chloro-N-((1r,4r)-4-((3-(6-(dimethylamino)pyridin-3-yl)-2-oxo-2,3-dihydro-1H-benzo[d]imidazol-1-yl)methyl)cyclohexyl)-2-methylnicotinamide]
< 0.3 µM	COCCN(C)c1ccc(-n2c(=O)n(C[C@H]3CC[C@H](NC(=O)c4cc(Cl)cnc4C)CC3)c3ccccc32)cn1 [Example 53, 5-chloro-N-((1r,4r)-4-((3-(6-((2-methoxyethyl)(methyl)amino)pyridin-3-yl)-2-oxo-2,3-dihydro-1H-benzo[d]imidazol-1-yl)methyl)cyclohexyl)-2-methylnicotinamide]
< 0.3 µM	Cc1ncc(Cl)cc1C(=O)N[C@H]1CC[C@H](Cn2c(=O)n(-c3ccc(N4CCOCC4)nc3)c3ccccc32)CC1 [Example 54, 5-chloro-2-methyl-N-((1r,4r)-4-((3-(6-morpholinopyridin-3-yl)-2-oxo-2,3-dihydro-1H-benzo[d]imidazol-1-yl)methyl)cyclohexyl) nicotinamide]
< 0.3 µM	Cc1ncc(Cl)cc1C(=O)N[C@H]1CC[C@H](Cn2c(=O)n(-c3ccc(N4CCN(C)CC4)nc3)c3ccccc32)CC1 [Example 55, 5-chloro-2-methyl-N-((1r,4r)-4-((3-(6-(4-methylpiperazin-1-yl)pyridin-3-yl)-2-oxo-2,3-dihydro-1H-benzo[d]imidazol-1-yl)methyl)cyclohexyl)nicotinamide]
< 0.3 µM	Cc1ccc(-n2c(=O)n(C[C@H]3CC[C@H](NC(=O)c4cc(Cl)cnc4C)CC3)c3cccc(C)c32)cn1 [Example 57, 5-chloro-2-methyl-N-((1r,4r)-4-((4-rrethyl-3-(6-methylpyridin-3-yl)-2-oxo-2,3-dihydro-1H-benzo[d]imidazol-1-yl)methyl)cyclohexyl)nicotinamide]
